Test results from US7741286B2, “Long lasting anti-angiogenic peptides” (ConjuChem Biotechnologies Inc., priority 1999, dated 2010).

Experiment: Peptide stability assay: stability of K5 in human plasma (HPLC/MS of free intact peptide)
Format: in vitro ADME
Set-up: remaining at 4 h / remaining at 24 h: dose or concentration left out as unconfirmed
Conditions: for % K5 peptide in plasma: final concentration 160 mM K5
Protocol: K5 was prepared as a 1 μM solution and dissolved in 25% human serum albumin. The mixture was then incubated at 37° C. in the presence of human plasma to final concentration of […] K5. Aliquots of 100 μl were withdrawn from the plasma at 0, 4 hours and 24 hours. The 100 μl aliquots were mixed with 100 μl of blocking solution (5 vol. 5% ZnSO4/3 vol. Acetonitrile/2 vol. Methanol) in order to precipitate all proteins. The sample was centrifuged for 5 min at 10,000 g and the supernatant containing the peptide was recovered and filtered through a 0.22 μm filter. The presence of free intact K5 peptide was assayed by the HPLC/MS. The HPLC parameters for detection of K5 peptide in serum were as follows.
The HPLC method was as follows: A Vydac C18 250×4.6 mm, 5μ particle size column was utilized. The column temperature was 30° C. with a flow rate of 0.5 ml/min. Mobile Phase A was 0.1% TFA/water. Mobile Phase B was 0.1% TFA/acetonitrite. The injection volume was 10 μl.
The gradient was as follows: […]
The proteins were detected at 214, 254 and 334 nm. For mass spectral analysis, the ionization mode was API-electrospray (positive mode) at an M/Z range of 300 to 2000. The gain was 3.0, fragmentor 120 v, threshold 20, stepsize 0.1. The gas temp was 350° C. and the dying gas volume was 10.0 l/min. The Neb pressure was 24 psi and the Vcap was 3500V. The HPLC method was as follows: A Vydac C18 250×4.6 mm, 5μ particle size column was utilized. The column temperature was 30° C. with a flow rate of 0.5 ml/min. Mobile Phase A was 0.1% TFA/water. Mobile Phase B was 0.1% TFA/acetonitrite. The injection volume was 10 μl.
The proteins were detected at 214, 254 and 334 nm. For mass spectral analysis, the ionization mode was API-electrospray (positive mode) at an M/Z range of 300 to 2000. The gain was 3.0, fragmentor 120 v, threshold 20, stepsize 0.1. The gas temp was 350° C. and the drying gas volume was 10.0 l/min. The Neb pressure was 24 psi and the Vcap was 3500V.

H-PRKLYDK-NH2 [Example K5, Pro-Arg-Lys-Leu-Tyr-Asp-Lys-NH2]
% K5 peptide in plasma (0 hrs, 37° C. in human plasma): 100%
remaining at 4 h (4 hrs, 37° C. in human plasma): 9%
% K5 peptide in plasma (4 hrs, 37° C. in human plasma): 9%
remaining at 24 h (24 hrs, 37° C. in human plasma): 0%
stability of unmodified K5 peptide in serum/plasma (in words) (human plasma, 37° C.): quite unstable
